Results reported in patent US5126432A, “Calcium channel modulating substances” (Miles Inc., priority 1988, dated 1992).
Entries after “also recorded” stand apart in the source; their conditions may differ.

Key:
[1] = tested on: dihydropyridine receptors; test: stability of inhibitory activity to boiling and ashing; format: physicochemical; conditions: 270° C. for 3 hours
From the text: This observed differential activity was further evidence of a specific interaction with the dihydropyridine binding site rather than the non-specific reduction of free ligand concentration.
When this fraction was chromatographed on either a Waters Protein Pak-125 or a TSK-250 gel filtration column using 40% acetonitrile in 0.1% TFA as the mobile phase, the activity (as determined in ligand binding assays described in Example 1c) eluted in a volume less than […] fragment (amino acids 61-63) having a molecular weight of 443.

calcium channel = conditions: known from the art; cited from earlier work
[2] = dialysis: binding of free [3H]DHP ligand to the fractions; conditions: 5 mg inside bag, 0.2 nM [3H]DHP, 25° C. overnight
Method: In order to further determine the specificity of action of a particular fraction (i.e., to insure that the fraction was acting competitively on the dihydropyridine receptor and not simply depleting the free ligand), a determination of the amount of free ligand was done by dialysis as follows.
A […] segment of Spectra-por 7 dialysis tubing (0.46 mL/cm) was washed thoroughly with water to remove EDTA and other chemicals. The molecular weight cut-off of this tubing was 1,000. Dialysis was performed in 16 mm glass tubes placed in a shaker incubator at 25° C. overnight. The volume inside the bag (made from closing the tubing by tying it) was 2.5 mL; the outside volume was 10 mL of 50 mM HEPES buffer, pH 7.0. Experiments were done with the [^3 H]DHP present both inside and outside the bag. The concentration of the [^3 H]DHP ligand used was always 0.2 nM. A control using 5 mg bovine serum albumin (BSA) inside the bag was carried out. […] The brain fractions tested were also 5 mg by weight. Dialysis was carried out in the presence of the cocktail of protease inhibitors described supra present both inside and outside the bag. The experiment was terminated by taking representative aliquots from inside and outside the bag (in triplicate). The cpm were then adjusted for total volume.

[Cl-].[Na+] [NaCl]
activity after ashing [1]: maintained activity upon ashing

COC(=O)C1=C(C)NC(C)=C([N+](=O)[O-])C1c1ccccc1C(F)(F)F (stereo not drawn) [Bay K8644]
effect on calcium channel current (calcium channel): increases calcium channel current; also recorded: can produce inhibition depending on the precise membrane potential and channel state

bovine serum albumin: control in dialysis, 5 mg inside the bag
binding of [3H]DHP ligand in dialysis [2]: bind [^3 H]DHP ligand hydrophobically
